Values quoted from earlier work, collected in patent publication US6815424B2, “Intranasal administration of polypeptides in powdered form” (Pfizer Corporation, priority 1987, dated 2004).

Conditions: in vivo, inhaled or intranasal

bioavailability compared to injection: about 2%
Compound: CC(C)C[C@H](NC(=O)[C@@H](Cc1ccc2ccccc2c1)NC(=O)[C@H](Cc1ccc(O)cc1)NC(=O)[C@H](CO)NC(=O)[C@H](Cc1c[nH]c2ccccc12)NC(=O)[C@H](Cc1c[nH]cn1)NC(=O)[C@@H]1CCC(=O)N1)C(=O)N[C@@H](CCCNC(=N)N)C(=O)N1CCC[C@H]1C(=O)NCC(N)=O [nafarelin acetate, L-pyroglutamyl-L-histidyl-L-tryptophyl-L-seryl-L-tyrosyl-D-3-(2-naphthyl)alanyl-L-leucyl-L-arginyl-L-prolyl-glycinamide]
